Tests used:
BV-2 [1] = experiment: Antineuroinflammatory activity in LPS-induced mouse BV-2 cells assessed as inhibition of NO production by griess assay; type: functional, cell-based
BV-2 [2] = experiment: Antineuroinflammatory activity in LPS-induced mouse BV-2 cells assessed as downregulation of iNOS protein expression by Western blot analysis; type: functional, cell-based; details: dose 2.5-10 µM
BV-2 [3] = experiment: Cytotoxicity against mouse BV-2 cells at 20 uM by MTT assay; type: toxicity, cell-based; details: bv-2, 20 µM
BV-2 [4] = experiment: Antineuroinflammatory activity in LPS-induced mouse BV-2 cells assessed as reduction in nuclear NF-kappaB protein expression by Western blot analysis; type: functional, cell-based; details: dose 2.5-10 µM
BV-2 [5] = experiment: Antineuroinflammatory activity in LPS-induced mouse BV-2 cells assessed as reduction in cytoplasmic NF-kappaB protein expression by Western blot analysis; type: functional, cell-based; details: dose 2.5-10 µM
BV-2 [6] = experiment: Antineuroinflammatory activity in LPS-induced mouse BV-2 cells assessed as downregulation of COX-2 protein expression by Western blot analysis; type: functional, cell-based; details: dose 2.5-10 µM

SMILES | IC50 (BV-2 [1]) | Activity (BV-2 [2]) | Activity (BV-2 [3]) | Activity (BV-2 [4]) | Activity (BV-2 [5]) | Activity (BV-2 [6])
O=c1c(O)c(-c2ccc(O)c(O)c2)oc2cc(O)cc(O)c12 [QUERCETIN] | 7.41 µM | – | – | – | – | –
CC(=O)C[C@@H]1CCC(C)(C)C/C1=C/C1=CC(C)(C)OC1=O | > 20 µM | – | Non-Toxic | – | – | –
COc1ccc2c(c1)c(CC(=O)O)c(C)n2C(=O)c1ccc(Cl)cc1 [INDOMETHACIN] | 19.5 µM | – | – | – | – | –
CC(=O)C[C@@H]1CCC(C)(C)C/C1=C/[C@H]1CC(=O)O[C@H]1C(C)(C)OC(=O)c1ccccc1 | 14.9 µM | – | Non-Toxic | – | – | –

Second part, led by results:

IC50 (BV-2 [1]) | SMILES | Activity (BV-2 [2]) | Activity (BV-2 [3]) | Activity (BV-2 [4]) | Activity (BV-2 [5]) | Activity (BV-2 [6])
5.74 µM | CC(=O)C[C@@H]1CCC(C)(C)C/C1=C/[C@H]1CC(=O)OC(C)(C)[C@H]1OC(=O)c1ccccc1 | Dose-Dependent Effect | Non-Toxic | Dose-Dependent Effect | Dose-Dependent Effect | Dose-Dependent Effect
7.35 µM | CC(=O)C[C@@H]1CCC(C)(C)C/C1=C/[C@H]1CC(=O)OC(C)(C)[C@@H]1OC(=O)c1ccccc1 | – | Non-Toxic | – | – | –
2.83 µM | C[C@@H]1C[C@H]2[C@@H]3CCC4=CC(=O)C=C[C@]4(C)[C@@]3(F)[C@@H](O)C[C@]2(C)[C@@]1(O)C(=O)CO [DEXAMETHASONE] | – | – | – | – | –
